Test results: patent US20260217767A1, “NOVEL A4B7 THIOETHER PEPTIDE DIMER ANTAGONISTS” (Protagonist Therapeutics, Inc., priority 2014, published 2026)
Where a SMILES comes first, the peptide text is derived from it.

The molecules below were run against T1, RPMI 8866 cells (Homo sapiens, UniProt P13612+P26010) (assay: α4β7-MAdCAM Cell Adhesion Assay). Details: thioether peptide dimers, Table 7; read-out: Cell-Adhesion A4B7.
T1 sequence (P13612 34-1032): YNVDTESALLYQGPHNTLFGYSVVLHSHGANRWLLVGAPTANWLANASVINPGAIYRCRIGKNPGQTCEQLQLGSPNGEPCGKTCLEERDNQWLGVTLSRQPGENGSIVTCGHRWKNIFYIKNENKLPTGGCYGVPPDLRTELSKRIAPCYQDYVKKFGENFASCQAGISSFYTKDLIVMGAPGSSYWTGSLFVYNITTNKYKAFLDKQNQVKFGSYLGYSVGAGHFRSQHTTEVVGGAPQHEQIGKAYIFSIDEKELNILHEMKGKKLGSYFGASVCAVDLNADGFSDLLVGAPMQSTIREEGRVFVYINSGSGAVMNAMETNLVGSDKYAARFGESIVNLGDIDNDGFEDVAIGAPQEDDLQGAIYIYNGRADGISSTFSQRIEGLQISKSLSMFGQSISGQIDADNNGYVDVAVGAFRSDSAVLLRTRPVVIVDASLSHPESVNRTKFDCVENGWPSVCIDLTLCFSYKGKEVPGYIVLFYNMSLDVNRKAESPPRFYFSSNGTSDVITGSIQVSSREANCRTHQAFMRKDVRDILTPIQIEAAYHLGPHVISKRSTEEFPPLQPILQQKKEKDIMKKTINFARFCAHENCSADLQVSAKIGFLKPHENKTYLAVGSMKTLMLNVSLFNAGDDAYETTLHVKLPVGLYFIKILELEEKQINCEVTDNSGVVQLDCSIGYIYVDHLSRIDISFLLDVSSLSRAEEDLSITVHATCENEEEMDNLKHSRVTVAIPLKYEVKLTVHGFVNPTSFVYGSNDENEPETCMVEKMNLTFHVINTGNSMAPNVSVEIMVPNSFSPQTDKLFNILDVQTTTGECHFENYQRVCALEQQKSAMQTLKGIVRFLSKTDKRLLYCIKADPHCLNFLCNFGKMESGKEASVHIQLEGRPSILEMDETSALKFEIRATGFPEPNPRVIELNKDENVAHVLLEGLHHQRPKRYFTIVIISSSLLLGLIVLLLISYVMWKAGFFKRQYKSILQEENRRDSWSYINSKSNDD
T1 sequence (P26010 20-798): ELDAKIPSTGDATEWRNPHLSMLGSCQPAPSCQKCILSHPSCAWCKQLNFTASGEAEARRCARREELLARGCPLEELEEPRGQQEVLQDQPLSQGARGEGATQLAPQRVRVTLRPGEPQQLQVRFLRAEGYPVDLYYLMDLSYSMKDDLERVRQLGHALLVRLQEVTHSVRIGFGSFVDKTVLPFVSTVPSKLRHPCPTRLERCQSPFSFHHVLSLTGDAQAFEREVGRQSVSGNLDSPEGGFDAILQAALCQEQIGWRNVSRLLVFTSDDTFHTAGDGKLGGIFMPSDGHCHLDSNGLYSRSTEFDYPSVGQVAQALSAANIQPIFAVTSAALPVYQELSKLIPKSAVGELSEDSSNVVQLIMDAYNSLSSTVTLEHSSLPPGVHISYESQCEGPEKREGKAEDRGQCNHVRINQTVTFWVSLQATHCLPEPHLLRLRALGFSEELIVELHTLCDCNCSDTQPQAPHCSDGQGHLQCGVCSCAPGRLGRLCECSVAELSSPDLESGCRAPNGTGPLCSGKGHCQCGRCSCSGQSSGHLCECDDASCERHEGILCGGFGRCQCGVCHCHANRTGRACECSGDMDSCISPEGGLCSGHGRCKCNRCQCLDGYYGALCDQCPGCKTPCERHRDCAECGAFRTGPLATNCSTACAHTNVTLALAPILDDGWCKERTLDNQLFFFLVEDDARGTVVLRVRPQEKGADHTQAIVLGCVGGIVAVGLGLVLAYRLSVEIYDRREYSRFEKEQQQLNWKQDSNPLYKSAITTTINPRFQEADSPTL
Format: cell-based
Description: α4β7-MAdCAM Cell Adhesion Assay
RPMI 8866 cells (Sigma #95041316) were cultured in RPMI 1640 HEPES medium (Invitrogen #22400-089) supplemented with 10% serum (Fetal Bovine Serum, Invitrogen #16140-071), 1 mM sodium pyruvate (Invitrogen #11360-070), 2 mM L-glutamine (Invitrogen #25030-081) and Penicillin-Streptomycin (Invitrogen #15140-122) at 100 units of penicillin and 100 μg of streptomycin per ml. The cells were washed two times in DMEM medium (ATCC #30-2002) supplemented with 0.1% BSA, 10 mM HEPES pH 7 and 1 mM MnCl2. The cells were re-suspended in supplemented DMEM medium at a density of 4×10^6 cells/ml.
A Nunc MaxiSorp plate was coated with rh MAdCAM-1/Fc Chimera (R&D #6065-MC) at 200 ng per well in 50 ul per well in 1×PBS and incubated at 4° C. overnight. The solution was then removed by shaking, blocked with 250 ul per well PBS containing 1% BSA, and incubated at 37° C. for 1 hr. The solution was removed by shaking. Peptides were diluted by serial dilution in a final volume of 50 ul per well (2× concentration). To each well, 50 ul of cells (200,000 cells) were added and the plate was incubated at 37° C., 5% CO2 for 30-45 min to allow cell adhesion. The wells were washed manually three times (100 ul per wash) with supplemented DMEM. After the final wash, 100 μl/well of supplemented DMEM and 10 ul/well of MTT reagent (ATTC cat #30-1010K) were added. The plate was incubated at 37° C., 5% CO2 for 2-3 hrs until a purple precipitate is visible. 100 ul of Detergent Reagent (ATTC cat #30-1010K) was added to each well. The plate was covered from the light, wrapped in Parafilm to prevent evaporation, and left overnight at room temperature in the dark. The plate was shaken for 5 min and the absorbance at 570 nm is measured. To calculate the dose response, the absorbance value of control wells not containing cells was subtracted from each test well.

Structure (SMILES)	IC50
CC(C)C[C@@H]1NC(=O)[C@H]([C@@H](C)O)NC(=O)[C@H](CCC(=O)O)NC(=O)[C@H](CO)NC(=O)[C@H](CCCNC(=N)N)N(C)C(=O)c2ccccc2CSC(C)(C)[C@@H](C(=O)N[C@@H](Cc2ccccc2)C(=O)N[C@H](CCC(=O)O)C(=O)N[C@H](CCCCN)C(N)=O)NC1=O [compound 189] (HELM PEPTIDE1{[meR].S.E.T.L.[Pen].F.[dE].[dK].[am]}|CHEM1{[O=C(c1ccccc1C[*:2])[*:1]]}$PEPTIDE1,CHEM1,1:R1-1:R1|PEPTIDE1,CHEM1,6:R3-1:R2$$$V2.0)	> 1000 nM
CC(C)C[C@@H]1NC(=O)[C@H]([C@@H](C)O)NC(=O)[C@H](CC(=O)O)NC(=O)[C@H](CO)NC(=O)[C@H](CCCNC(=N)N)N(C)C(=O)c2ccccc2CSC(C)(C)[C@@H](C(=O)N[C@@H](Cc2c[nH]c3ccccc23)C(=O)N[C@H](CCC(=O)O)C(=O)N[C@@H](CC(C)C)C(=O)N[C@H](CCCCN)C(N)=O)NC1=O [compound 190] (HELM PEPTIDE1{[meR].S.D.T.L.[Pen].W.[dE].L.[dK].[am]}|CHEM1{[O=C(c1ccccc1C[*:2])[*:1]]}$PEPTIDE1,CHEM1,1:R1-1:R1|PEPTIDE1,CHEM1,6:R3-1:R2$$$V2.0)	< 25 nM
CC(C)C[C@@H]1NC(=O)[C@H]([C@@H](C)O)NC(=O)[C@H](CC(=O)O)NC(=O)[C@H](CO)NC(=O)[C@H](CCCNC(=N)N)N(C)C(=O)c2ccccc2CSC(C)(C)[C@@H](C(=O)N[C@@H](Cc2c[nH]c3ccccc23)C(=O)N[C@H](CCC(=O)O)C(=O)N[C@@H](Cc2ccccc2)C(=O)N[C@H](CCCCN)C(N)=O)NC1=O [compound 192] (HELM PEPTIDE1{[meR].S.D.T.L.[Pen].W.[dE].F.[dK].[am]}|CHEM1{[O=C(c1ccccc1C[*:2])[*:1]]}$PEPTIDE1,CHEM1,1:R1-1:R1|PEPTIDE1,CHEM1,6:R3-1:R2$$$V2.0)	< 25 nM
CC(C)C[C@@H]1NC(=O)[C@H]([C@@H](C)O)NC(=O)[C@H](CC(=O)O)NC(=O)[C@H](CO)NC(=O)[C@H](CCCNC(=N)N)N(C)C(=O)c2ccccc2CSC(C)(C)[C@@H](C(=O)N[C@@H](Cc2c[nH]c3ccccc23)C(=O)N[C@H](CCC(=O)O)C(=O)N[C@@H](Cc2c[nH]cn2)C(=O)N[C@H](CCCCN)C(N)=O)NC1=O [compound 193] (HELM PEPTIDE1{[meR].S.D.T.L.[Pen].W.[dE].H.[dK].[am]}|CHEM1{[O=C(c1ccccc1C[*:2])[*:1]]}$PEPTIDE1,CHEM1,1:R1-1:R1|PEPTIDE1,CHEM1,6:R3-1:R2$$$V2.0)	< 25 nM
CC(C)C[C@@H]1NC(=O)[C@H]([C@@H](C)O)NC(=O)[C@H](CC(=O)O)NC(=O)[C@H](CO)NC(=O)[C@H](CCCNC(=N)N)N(C)C(=O)c2ccccc2CSC(C)(C)[C@@H](C(=O)N[C@@H](Cc2c[nH]c3ccccc23)C(=O)N[C@H](CCC(=O)O)C(=O)N[C@@H](Cc2ccc(O)cc2)C(=O)N[C@H](CCCCN)C(N)=O)NC1=O [compound 195] (HELM PEPTIDE1{[meR].S.D.T.L.[Pen].W.[dE].Y.[dK].[am]}|CHEM1{[O=C(c1ccccc1C[*:2])[*:1]]}$PEPTIDE1,CHEM1,1:R1-1:R1|PEPTIDE1,CHEM1,6:R3-1:R2$$$V2.0)	< 25 nM
CC(C)C[C@@H]1NC(=O)[C@H]([C@@H](C)O)NC(=O)[C@H](CC(=O)O)NC(=O)[C@H](CO)NC(=O)[C@H](CCCNC(=N)N)N(C)C(=O)c2ccccc2CSC(C)(C)[C@@H](C(=O)N[C@@H](Cc2c[nH]c3ccccc23)C(=O)N[C@H](CCC(=O)O)C(=O)N[C@H](CO)C(=O)N[C@H](CCCCN)C(N)=O)NC1=O [compound 197] (HELM PEPTIDE1{[meR].S.D.T.L.[Pen].W.[dE].[dS].[dK].[am]}|CHEM1{[O=C(c1ccccc1C[*:2])[*:1]]}$PEPTIDE1,CHEM1,1:R1-1:R1|PEPTIDE1,CHEM1,6:R3-1:R2$$$V2.0)	< 25 nM
